Each molecule was assayed against PASK (Homo sapiens (Human), UniProt Q96RG2) (assay: PAS Kinase FRET Assay). Conditions: TR-FRET, Ulight-peptide substrate; read-out: IC50 Kinase Domain.
Type: biochemical
Source text: PAS Kinase FRET Assay The aim of the FRET assay is to determine the inhibition potential of test compounds on targeted kinase. This assay platform provides a homogenous screening method for measuring kinase activity by quantitating the amount of phospho-substrate in solution following a kinase reaction. In the presence of kinase and ATP, the Ulight-peptide is phosphorylated and captured by an anti-phospho-substrate antibody, which brings the Eu chelate donor and Ulight acceptor dyes into close proximity. […] The contents of the plate were and incubated at RT for 1 h. The reaction was stopped by adding 5 μl of stop solution to each test well followed by mixing and incubation at RT for 10 minutes. 5 μl of detection mix (detection antibody diluted in detection buffer) was added; the contents of the plate were mixed and then incubated in the dark for 1 hour at RT. […] The results were graphed to calculate the EC50. Titration of ATP at the EC50 concentration of kinase to determine ATP Km,app. was performed using the following method. […] The contents of the plate were and incubated at RT for 1 h. The reaction was stopped by adding 5 μl of stop solution to each test well followed by mixing and incubation at RT for 10 minutes. 5 μl of detection mix (detection antibody diluted in detection buffer) was added; the contents of the plate were mixed and then incubated in the dark for 1 hour at RT. […] The results were graphed to calculate the EC50 as the ATP Km,app. […] If compound is not soluble under this condition, it was diluted to 3 mM. Kinase reaction buffer was prepared containing 10 mM MgCl2, 50 mM HEPES, 1 mM EGTA, 0.01% TWEEN-20, 2 mM DTT. […] As a positive control, 2.5 μl of positive compound was added to assay wells, and 2.5 μl of DMSO to assay wells as vehicle control. Kinase solution was prepared in reaction buffer at 2× final assay concentration. Kinase solution (5 μl) was added to each well of the assay plate. The substrate and ATP solution was prepared in kinase reaction buffer at 4× final assay concentration. The kinase reaction was started by adding 2.5 μl of substrate+ATP mix solution to each well of the assay plate. The plate is mixed on a plate shaker; then covered and allowed to react for 2 hours in the dark at 25° C. without shaking. The reaction was stopped by adding 5 μl of stop solution to each test well followed by mixing and incubation at RT for 10 minutes in the dark. 5 μl of detection mix (detection antibody diluted in detection buffer) was added; the contents of the plate were mixed and then incubated in the dark for 1 hour at RT.

Chain of PASK (Q96RG2 999-1251): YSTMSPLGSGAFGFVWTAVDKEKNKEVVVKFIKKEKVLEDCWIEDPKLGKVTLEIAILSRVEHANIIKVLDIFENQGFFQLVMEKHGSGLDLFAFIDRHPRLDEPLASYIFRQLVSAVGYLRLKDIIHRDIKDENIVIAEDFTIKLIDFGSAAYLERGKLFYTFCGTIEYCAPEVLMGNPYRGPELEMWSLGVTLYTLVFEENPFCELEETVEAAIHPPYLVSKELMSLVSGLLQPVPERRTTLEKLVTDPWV

Compound	IC50
CN(c1ccccc1)C1CCN(c2nc3cc(C(=O)O)ccc3nc2-c2ccccc2)CC1 [Example 35, 3-(4-(Methyl(phenyl)amino)piperidin-1-yl)-2-phenylquinoxaline-6-carboxylic acid]	≤ 10 µM
CCN(CC)c1nc2cc(C(=O)O)ccc2nc1-c1ccccc1 [Example 36, 3-(Diethylamino)-2-phenylquinoxaline-6-carboxylic acid]	≤ 10 µM
O=C(O)c1ccc2nc(-c3ccccc3)c(NCCc3ccccc3)nc2c1 [Example 41, 3-(Phenethylamino)-2-phenylquinoxaline-6-carboxylic acid]	≤ 10 µM
CN(CCc1ccccc1)c1nc2cc(C(=O)O)ccc2nc1-c1ccccc1 [Example 42, 3-(Methyl(phenethyl)amino)-2-phenylquinoxaline-6-carboxylic acid]	≤ 10 µM
O=C(O)c1ccc2nc(-c3ccccc3)c(NC3CCCCC3)nc2c1 [Example 44, 3-(Cyclohexylamino)-2-phenylquinoxaline-6-carboxylic acid]	≤ 10 µM
CCC(C)N(C)c1nc2cc(C(=O)O)ccc2nc1-c1ccccc1 (stereo not shown) [Example 48, 3-(sec-Butyl(methyl)amino)-2-phenylquinoxaline-6-carboxylic acid]	≤ 10 µM
O=C(O)c1ccc2nc(-c3ccccc3)c(N3CC[C@@H](O)C3)nc2c1 [Example 49, (R)-3-(3-Hydroxypyrrolidin-1-yl)-2-phenylquinoxaline-6-carboxylic acid]	≤ 10 µM
O=C(O)c1ccc2nc(-c3ccccc3)c(N3CCC[C@H]3CO)nc2c1 [Example 53, (S)-3-(2-(Hydroxymethyl)pyrrolidin-1-yl)-2-phenylquinoxaline-6-carboxylic acid]	≤ 10 µM
C[C@@H](c1ccccc1)N(C)c1nc2cc(C(=O)O)ccc2nc1-c1ccccc1 [Example 60, (S)-3-(Methyl(1-phenylethyl)amino)-2-phenylquinoxaline-6-carboxylic acid]	≤ 10 µM
O=C(O)c1ccc2nc(-c3ccccc3)c(N3CCc4ccccc43)nc2c1 [Example 67, 3-(Indolin-1-yl)-2-phenylquinoxaline-6-carboxylic acid]	≤ 10 µM
O=C(O)c1ccc2nc(-c3ccccc3)c(N3CCOc4ccccc43)nc2c1 [Example 68, 3-(2,3-Dihydrobenzo[b][1,4]oxazin-4-yl)-2-phenylquinoxaline-6-carboxylic acid]	≤ 10 µM
CC(C)N(C)c1nc2cc(C(=O)O)ccc2nc1-c1ccccc1F [Example 71, 2-(2-Fluorophenyl)-3-(isopropyl(methyl)amino)quinoxaline-6-carboxylic acid]	≤ 10 µM
CC(C)N(C)c1nc2cc(C(=O)O)ccc2nc1-c1ccc(S(C)(=O)=O)cc1 [Example 82, 3-(Isopropyl(methyl)amino)-2-(4-(methylsulfonyl)phenyl)quinoxaline-6-carboxylic acid]	≥ 10 µM
CN(c1nc2cc(C(=O)O)ccc2nc1-c1ccc(F)cc1)C1CC1 [Example 92, 3-(Cyclopropyl(methyl)amino)-2-(4-fluorophenyl)quinoxaline-6-carboxylic acid]	≤ 10 µM
O=C(O)c1ccc2nc(-c3ccccc3)c(N3CCCC4CCCCC43)nc2c1 (stereo not shown) [Example 96, 3-(Octahydroquinolin-1(2H)-yl)-2-phenylquinoxaline-6-carboxylic acid]	≤ 10 µM
CC(C)N(C)c1nc2cc(C(=O)O)ccc2nc1-c1cccnc1 [Example 97, 3-(Isopropyl(methyl)amino)-2-(pyridin-3-yl)quinoxaline-6-carboxylic acid]	≤ 10 µM
O=C(O)c1ccc2nc(-c3ccc(F)cc3)c(N3CCS(=O)(=O)CC3)nc2c1 [Example 101, 3-(1,1-Dioxidothiomorpholino)-2-(4-fluorophenyl)quinoxaline-6-carboxylic acid]	≥ 10 µM

Now from value to molecule:

IC50	Compound
≤ 10 µM	CS(=O)(=O)N1CCN(c2nc3cc(C(=O)O)ccc3nc2-c2ccccc2)CC1 [Example 33, 3-(4-(Methylsulfonyl)piperazin-1-yl)-2-phenylquinoxaline-6-carboxylic acid]
≤ 10 µM	CC(=O)N(C)C1CCN(c2nc3cc(C(=O)O)ccc3nc2-c2ccccc2)CC1 [Example 34, 3-(4-(N-Methylacetamido)piperidin-1-yl)-2-phenylquinoxaline-6-carboxylic acid]
≤ 10 µM	CC(=O)NC1CCN(c2nc3cc(C(=O)O)ccc3nc2-c2ccccc2)CC1 [Example 37, 3-(4-Acetamidopiperidin-1-yl)-2-phenylquinoxaline-6-carboxylic acid]
≤ 10 µM	O=C(O)c1ccc2nc(-c3ccccc3)c(N3CCc4ccccc4C3)nc2c1 [Example 39, 3-(3,4-Dihydroisoquinolin-2(1H)-yl)-2-phenylquinoxaline-6-carboxylic acid]
≤ 10 µM	O=C(O)c1ccc2nc(-c3ccccc3)c(N3CC[C@H](O)C3)nc2c1 [Example 50, (S)-3-(3-Hydroxypyrrolidin-1-yl)-2-phenylquinoxaline-6-carboxylic acid]
≤ 10 µM	C[C@H](c1ccccc1)N(C)c1nc2cc(C(=O)O)ccc2nc1-c1ccccc1 [Example 59, (R)-3-(Methyl(1-phenylethyl)amino)-2-phenylquinoxaline-6-carboxylic acid]
≤ 10 µM	CC[C@@H](C)N(C)c1nc2cc(C(=O)O)ccc2nc1-c1ccccc1 [Example 61, (R)-3-(sec-Butyl(methyl)amino)-2-phenylquinoxaline-6-carboxylic acid]
≤ 10 µM	O=C(O)c1ccc2nc(-c3ccccc3)c(-n3ccc4ccccc43)nc2c1 [Example 62, 3-(1H-Indol-1-yl)-2-phenylquinoxaline-6-carboxylic acid]
≤ 10 µM	COc1cccc(-c2nc3ccc(C(=O)O)cc3nc2N(C)C(C)C)c1 [Example 69, 3-(Isopropyl(methyl)amino)-2-(3-methoxyphenyl)quinoxaline-6-carboxylic acid]
≤ 10 µM	CC(C)N(C)c1nc2cc(C(=O)O)ccc2nc1-c1cccc(F)c1 [Example 70, 2-(3-Fluorophenyl)-3-(isopropyl(methyl)amino)quinoxaline-6-carboxylic acid]
≤ 10 µM	CC(C)N(C)c1nc2cc(C(=O)O)ccc2nc1-c1ccc(OC(F)(F)F)cc1 [Example 85, 3-(Isopropyl(methyl)amino)-2-(4-(trifluoromethoxy)phenyl)quinoxaline-6-carboxylic acid]
≤ 10 µM	CC(C)N(C)c1nc2cc(C(=O)O)ccc2nc1-c1ccc(C#N)cc1 [Example 86, 2-(4-Cyanophenyl)-3-(isopropyl(methyl)amino)quinoxaline-6-carboxylic acid]
≤ 10 µM	C[C@H]1CN(c2ccccn2)CCN1c1nc2cc(C(=O)O)ccc2nc1-c1ccc(F)cc1 [Example 90, (S)-2-(4-Fluorophenyl)-3-(2-methyl-4-(pyridin-2-yl)piperazin-1-yl)quinoxaline-6-carboxylic acid]
≤ 10 µM	C[C@H]1CCCCN1c1nc2cc(C(=O)O)ccc2nc1-c1ccc(F)cc1 [Example 91, (S)-2-(4-Fluorophenyl)-3-(2-methylpiperidin-1-yl)quinoxaline-6-carboxylic acid]
≤ 10 µM	COC[C@H]1CCCN1c1nc2cc(C(=O)O)ccc2nc1-c1ccc(F)cc1 [Example 93, (R)-2-(4-Fluorophenyl)-3-(2-(methoxymethyl)pyrrolidin-1-yl)quinoxaline-6-carboxylic acid]
≤ 10 µM	C[C@H]1CN(c2ccccn2)CCN1c1nc2cc(C(=O)O)ccc2nc1-c1ccccc1 [Example 94, (S)-3-(2-Methyl-4-(pyridin-2-yl)piperazin-1-yl)-2-phenylquinoxaline-6-carboxylic acid]
≤ 10 µM	CC(C)N(C)c1nc2cc(C(=O)O)ccc2nc1-c1ccco1 [Example 98, 2-(Furan-2-yl)-3-(isopropyl(methyl)amino)quinoxaline-6-carboxylic acid]
≤ 10 µM	CC(C)N(C)c1nc2cc(C(=O)O)ccc2nc1-c1cnc2ccccc2c1 [Example 99, 3-(Isopropyl(methyl)amino)-2-(quinolin-3-yl)quinoxaline-6-carboxylic acid]
≤ 10 µM	CC(C)N(C)c1nc2cc(C(=O)O)ccc2nc1-c1ccc(N2CCOCC2)cc1 [Example 100, 3-(Isopropyl(methyl)amino)-2-(4-morpholinophenyl)quinoxaline-6-carboxylic acid]
≥ 10 µM	O=C(O)c1ccc2nc(-c3ccccc3)c(N3CCS(=O)(=O)CC3)nc2c1 [Example 102, 3-(1,1-Dioxidothiomorpholino)-2-phenylquinoxaline-6-carboxylic acid]

From patent US10781185B2, “Heterocyclic compounds for the inhibition of PASK” (BioEnergenix LLC, priority 2009, dated 2020)
